Measurements from patent publication US9676749B2, “Compositions and methods for cancer detection and treatment” (Ohio State Innovation Foundation, priority 2009, dated 2017).
Entries after “also recorded” stand apart in the source; their conditions may differ. Read-outs that look alike come from different tables or passages of the source.

Columns and labels:
[1] = target: purified PRMT1 (Homo sapiens, UniProt Q99873); conditions: 100-500 uM, one hour at 37 C, 3 replicate experiments, p<0.0001
Source text: (§1) Do achieve this, we performed enzyme inhibition assays using purified PRMT1 (a type I PRMT enzyme) and purified PRMT5 (a type II PRMT enzyme).
(§2) The next step required studies to explore whether CMP5 was capable of selectively inhibiting a type II PRMT enzyme. Type I PRMT enzymes are involved in transcriptional activation (asymmetric dimethylation at H4R3) and type II PRMT enzymes regulates transcriptional repression (symmetric dimethylation or S2Mc at H4R3). To achieve this goal, we performed enzyme inhibition assays using purified PRMT1 (type I PRMT enz) and purified PRMT5 (type II PRMT enz). Assays were performed utilizing 2 methods. The first utilized methods described previously by Zhao et at (Nat Struct Mol Biol. 2009), where 1 ug of H4 (Roche) was used as substrate and 2 uCi of S-adenosyl-L-methyl-^3H-methionine (^3H-SAM; Amersham) as the methyl donor in the presence or absence of 100-500 uM of CMP5 was incubated in HMTase buffer for 3 h at 37° C. Reaction mixtures were spotted on Whatman P-81 filter paper and washed to remove unincorporated [^3H]SAM. Methylated peptides were detected by scintillation counting. […] The second method utilized a methyltransferase activity assay to distinguish if differential inhibitory activity of CMP5 existed against the type I PRMT1 vs. the type II enzyme PRMT. The methyltransferase assay we used (Amsbio inc) utilized purified PRMT5 and PRMT1 enzyme preparations and tested for methylation of Histone H4 at arginine 3 (H4R3). SAM was incubated with a sample containing substrate H4 peptide, different concentrations of methyltransferase enzymes (PRMT5 or PRMT1), in presence or absence of CMP5 (100-500 uM) for one hour at 37° C. Fluorescently labeled SAM tracer was added followed by anti-SAM antibody that produces a change in fluorescent polarization that can be measured using a fluorescence reader.

[2] = target: T1, purified PRMT5 (Homo sapiens, UniProt O14744)
T1 sequence (O14744 whole entry): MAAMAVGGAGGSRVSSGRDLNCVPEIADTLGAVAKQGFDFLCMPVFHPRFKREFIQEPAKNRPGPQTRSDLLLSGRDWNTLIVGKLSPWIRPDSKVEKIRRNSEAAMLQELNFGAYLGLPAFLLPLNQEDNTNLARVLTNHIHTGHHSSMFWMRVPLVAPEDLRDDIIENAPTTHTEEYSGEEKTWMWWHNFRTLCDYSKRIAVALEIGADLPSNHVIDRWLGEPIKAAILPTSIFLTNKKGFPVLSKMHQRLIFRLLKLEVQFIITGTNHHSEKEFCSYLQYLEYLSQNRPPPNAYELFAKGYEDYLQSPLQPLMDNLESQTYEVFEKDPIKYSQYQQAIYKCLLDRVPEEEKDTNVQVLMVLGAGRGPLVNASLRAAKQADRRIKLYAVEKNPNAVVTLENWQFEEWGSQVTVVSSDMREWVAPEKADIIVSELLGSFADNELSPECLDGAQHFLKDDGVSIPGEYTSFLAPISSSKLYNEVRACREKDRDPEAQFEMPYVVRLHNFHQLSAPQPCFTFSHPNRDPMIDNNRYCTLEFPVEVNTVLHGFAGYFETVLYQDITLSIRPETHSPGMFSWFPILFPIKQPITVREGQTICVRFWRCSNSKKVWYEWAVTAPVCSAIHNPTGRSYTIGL
T1 sequence (Q9BQA1 whole entry partner): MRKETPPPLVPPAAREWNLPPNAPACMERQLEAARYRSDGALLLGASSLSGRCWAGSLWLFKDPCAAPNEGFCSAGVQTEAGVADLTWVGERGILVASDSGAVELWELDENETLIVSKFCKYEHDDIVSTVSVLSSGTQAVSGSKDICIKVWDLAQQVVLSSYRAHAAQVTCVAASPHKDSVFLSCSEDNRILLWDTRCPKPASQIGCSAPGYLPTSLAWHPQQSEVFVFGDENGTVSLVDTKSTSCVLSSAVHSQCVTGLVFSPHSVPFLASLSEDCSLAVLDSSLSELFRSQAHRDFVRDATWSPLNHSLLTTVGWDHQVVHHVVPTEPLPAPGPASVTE
Source text: as §1, §2

[3] = target: human pure PRMT5 enzyme (Homo sapiens, UniProt O14744); assay: In vitro methylation assay; assay type: biochemical; conditions: FIG. 21 left
Chain of human pure PRMT5 enzyme (O14744 whole entry): as the sequence (O14744 whole entry) above
Chain of human pure PRMT5 enzyme (Q9BQA1 whole entry partner): as the sequence (Q9BQA1 whole entry partner) above
Method: SAM was omitted for the substrate control, and human pure PRMT5 enzyme was omitted for blank control. (right) Jeko and Mino cells were treated by 10 uM of BLL36 for 24 hr, viability was evaluated by flow cytometry.

[4] = target: T1, purified PRMT5; conditions: 100-500 uM CMP5, H4 substrate, 3H-SAM, 3 h at 37 C; ±7.8%, p<0.001, data not shown
Method: as §2, with “The methyltransferase assay we used (Amsbio inc) utilized purified PRMT5 and PRMT1 enzyme preparations and tested for methylation of Histone H4 at arginine 3 (H4R3). SAM was incubated with a sample containing substrate H4 peptide, different concentrations of methyltransferase enzymes (PRMT5 or PRMT1), in presence or absence of CMP5 (100-500 uM) for one hour at 37° C.” left out

[5] = tested on: symmetrical dimethylation (S2Me) of histone H4R3 in glioma cell line U1242; assay: Symmetric dimethyl H4R3 (S2Me-H4R3) content in glioma/astrocytoma cell lines by confocal microscopy and flow cytometry; assay type: cell-based, human; conditions: for S2Me-H4R3 in astrocytoma cell lines, single agent or combined: CMP5 at 25 uM, HDAC inhibitor TSA; for H4R3 symmetric 2Me arginine methylation (S2Me): U1242, 8 hour incubation, confocal microscopy; for S2Me-H4R3 content, flow cytometric assay (FIG. 18): U1242 and U251, TSA (25 nM) and/or CMP5 (25 uM)
Method: (§3) Confocal microscopy was used with mAbs specific for symmetrical dimethylation (S2Me) of histone H4R3. Positive control for loss of PRMT5 activity was provided by treatment of U1242 cells with a PRMT5-specific siRNA used in above experiments. (B) Cell proliferation was assessed in replicate cultures incubated in DMSO and compounds 1-8.
Initial Screening experiments were performed utilizing monoclonal antibodies specific for H4R3 symmetric dimethyl arginine and confocal microscopy generated images evaluating H4R3 methylation. Controls included scrambled and SiRNA specific for PRMT5 to verify knockdown and loss of H4R3 methylation. […] Findings similar to PRMT5-specific SiRNA treatment.
Recent work reported by Pal et al has shown that PRMT5 associates with SWI/SNF chromatin remodeling complexes along with other co-repressor molecules like HDAC2. […] We utilized a flow cytometric assay to evaluate symmetric dimethyl H4R3 (S2Me-H4R3) content and confocal microscopy to verify loss of methylation status.
(§4) The biochemical association of PRMT5 and HDAC2 with repressive chromatin remodeling complexes and cooperative enzyme kinetics has been previously described. […] As a control, we utilized a flow cytometric assay to evaluate symmetric dimethyl H4R3 (S2Me-H4R3, FIG. 18) content and confocal microscopy (not shown) to verify decrease of methylation status. We used Aimexin V/PI staining and flow cytometry to examine apoptosis (below). […] We are presently performing dose response experiments to examine whether this activity can be improved. In data not shown, we can achieve similar results with lower doses of CMP5 (10 uM). […] Inhibition PRMT5 with CMP5 and HDAC enzymes (at 10 fold lower concentrations) leads to synergistic induction of apoptosis of astrocytoma cell lines.

[6] = tested on: astrocytoma cell lines (U1242 and U251); assay: Apoptosis of GBM/astrocytoma cell lines (Annexin V/PI, flow cytometry); assay type: cell-based, human; conditions: single agents, not shown
Source text: (B) inhibition of migration at 12 hrs after addition of siRNA to knock down PRMT5 vs. Scramble siRNA control.
as §4

[7] = tested on: U1242 cell line; assay: Cell proliferation of GBM cells; assay type: cell-based, human; conditions: for cell proliferation / anti proliferative activity: GBM cells (U1242), vs DMSO control
Method: as §3
Preliminary enzymatic activity assays are currently underway and will be provided as an update during submission of supplementary materials.

[8] = compound 5 at 20, 30, 40, 50 and 100 uM, 48 hours

Chain of purified PRMT1 (Q99873 whole entry, species assumed): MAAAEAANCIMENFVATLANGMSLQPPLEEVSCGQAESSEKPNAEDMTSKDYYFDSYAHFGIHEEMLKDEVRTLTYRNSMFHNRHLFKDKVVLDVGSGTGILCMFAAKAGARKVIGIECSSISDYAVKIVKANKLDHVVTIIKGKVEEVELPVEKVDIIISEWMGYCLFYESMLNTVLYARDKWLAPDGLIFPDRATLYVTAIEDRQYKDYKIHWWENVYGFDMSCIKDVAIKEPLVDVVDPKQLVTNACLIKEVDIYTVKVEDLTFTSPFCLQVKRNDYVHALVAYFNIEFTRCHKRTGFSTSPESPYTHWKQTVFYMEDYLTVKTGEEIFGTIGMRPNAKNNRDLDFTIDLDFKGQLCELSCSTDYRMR

inhibition of PRMT1 activity [1]	inhibition of PRMT1 activity ([1]; listed as CMP5)	inhibition of PRMT5 activity ([2]; 100-500 uM, one hour at 37 C, 3 replicate experiments, p<0.0001)	IC50 ([2]; lead compound of the initial screen)	concentration that decreased methyltransferase activity of PRMT5 [3] [µM]	reduction of methyltransferase activity [4] [%]	SMILES	S2Me-H4R3 in astrocytoma cell lines, single agent or combined [5]	concentration of compound 5 giving loss of S2Me status of H4R3 on co-treatment with HDACi TSA ([5]; GBM cell lines, co-treated with TSA) [µM]	fold lower concentration of compound 5 for loss of S2Me H4R3 on co-treatment with TSA ([5]; GBM cell lines, co-treated with TSA (75, 100 nM)) [fold]	H4R3 symmetric 2Me arginine methylation (S2Me) [5]	H4R3 symmetric 2Me arginine methylation (S2Me) ([5]; listed as CMP5)	S2Me-H4R3 content, flow cytometric assay (FIG. 18) [5]	degree of H4R3 methylation, titration [5, 8]	concentration of CMP5 required for reduced methylation, single agent ([5]; original dose response experiments) [µM]	apoptosis of GBM cell lines [6]	cell proliferation / anti proliferative activity [7]	cell proliferation / anti proliferative activity ([7]; listed as CMP5)	cellular proliferation (absolute cell numbers), titration [7, 8]
not PRMT1 activity	not PRMT1 enzymatic activity	selectively inhibiting PRMT5 activity	micromolar (uM) ranges	100	55	CCn1c2ccccc2c2cc(CNCc3ccccn3)ccc21 [Compound 5]	unchanged	10	> 10	most efficacy; also recorded: best activity; also recorded: reduced; also recorded: capable of inhibiting H4R3 symmetric 2Me arginine methylation	loss of symmetric dimethyl-H4R3	no change in S2Me-H4R3	a dose response was seen	100	promote apoptosis of GBM cell lines	most efficacy; also recorded: reduced cell proliferation	antiproliferative effect	a dose response was seen
						CC(/C=C/C(=O)NO)=C\[C@@H](C)C(=O)c1ccc(N(C)C)cc1 [TSA, Trichostatin A, reference compound]	unchanged					no change in S2Me-H4R3						
